Earlier results, collected in patent US20230405017A1, “METHODS OF USING RHO KINASE INHIBITORS TO TREAT FRONTOTEMPORAL DEMENTIA” (Woolsey Pharmaceuticals, Inc., priority 2020, published 2023).

Conditions: in vivo; 1-hydroxy (M3) metabolite of fasudil

- half-life: about 8 hours
SMILES: O=S(=O)(c1cccc2c(O)nccc12)N1CCCNCC1 [M3]
